Source: patent US4146610A, “Antibiotics MM13902” (Beecham Group Limited, priority 1974, dated 1979)
Structures can show the parent of a compound that is named as a salt.

Assays:
[1] = system: β-lactamases produced by Escherichia coli, Klebsiella aerogenes and Staphylococcus aureus; assay: Inhibition of β-lactamases of various species; type: biochemical
[2] = system: monoamine oxidase; assay: Enzyme inhibition (selectivity); type: biochemical; details: at concentrations in excess of those required to inhibit the β-lactamase of E. coli
[3] = system: carbonic anhydrase; assay: Enzyme inhibition (selectivity); type: biochemical; details: at concentrations in excess of those required to inhibit the β-lactamase of E. coli
[4] = system: dopa decarboxylase; assay: Enzyme inhibition (selectivity); type: biochemical; details: at concentrations in excess of those required to inhibit the β-lactamase of E. coli
[5] = system: tyrpsin; assay: Enzyme inhibition (selectivity); type: biochemical; details: at concentrations in excess of those required to inhibit the β-lactamase of E. coli
[6] = system: chymotrypsin; assay: Enzyme inhibition (selectivity); type: biochemical; details: at concentrations in excess of those required to inhibit the β-lactamase of E. coli
[7] = system: urease; assay: Enzyme inhibition (selectivity); type: biochemical; details: at concentrations in excess of those required to inhibit the β-lactamase of E. coli
[8] = system: Klebsiella aerogenes; assay: Antibiotic activity in arbitrary units; type: cell-based
Procedure: The material produced above was arbitrarily assigned an activity of 340 l/ml. Assays were determined as described in Description 3.

[9] = Stability; type: physicochemical; details: unsalted acid form

With `CC(=O)N/C=C/[S+]([O-])C1=C(C(=O)O)N2C(=O)C(C(C)OS(=O)(=O)O)C2C1` (stereo not shown) [MM 4550A] the “enzyme inhibitory activity against β-lactamases” value [1] was “possesses enzyme inhibitory activity”, the enzyme inhibition [2] was “does not inhibit” and the enzyme inhibition [3] was “does not inhibit”. The enzyme inhibition [4] was “does not inhibit”, the enzyme inhibition [5] was “does not inhibit” and the enzyme inhibition [6] was “does not inhibit”. The enzyme inhibition [7] was “does not inhibit”.
In the case of `CC(=O)N/C=C/SC1=C(C(=O)O)N2C(=O)C(C(C)OS(=O)(=O)O)C2C1` (stereo not shown) [di-sodium salt of MM 13902], the activity ([8]; yellowish powder after cellulose chromatography) was 73,000 units/mg.
For `CC(=O)N/C=C/SC1=C(C(=O)O)N2C(=O)C(C(C)OS(=O)(=O)O)C2C1` (stereo not shown) [MM 13902], the stability [9] was “tends to be unstable” and the activity ([8]; partially purified salt, after XAD 4) was 37,000 units/mg.
